The source of these data is PMC12440824, “Chimeric deubiquitinase engineering reveals structural basis for specific inhibition of the mitophagy regulator USP30” (Nature Structural & Molecular Biology, 2025).

This test deals with USP30^ch3 (Homo sapiens, UniProt Q70CQ3). Nature of the test: Ub–RhoG cleavage enzyme inhibition assay, chimera 3 (WT). It counts as biochemical. The note with it: mean n=3. Here is the method: Enzyme kinetics were performed in black, low-volume, non-binding-surface 384-well plates. […] Next, 10 µl of 2× enzyme solution was added in triplicate to the plate. The reaction was started by adding 10 µl of 2× substrate solution. […] Inhibitor solution (4×) was added to 4× enzyme solution to create a 2× enzyme–inhibitor mixture. Next, 10 µl of this 2× enzyme–inhibitor mixture was then added to the plate in triplicate, and the plate was incubated at room temperature for 90 min. The reaction was started by adding 10 µl of 2× Ub–RhoG substrate. […] Data were analyzed with GraphPad Prism.
Sequence of USP30^ch3 (Q70CQ3 64-502): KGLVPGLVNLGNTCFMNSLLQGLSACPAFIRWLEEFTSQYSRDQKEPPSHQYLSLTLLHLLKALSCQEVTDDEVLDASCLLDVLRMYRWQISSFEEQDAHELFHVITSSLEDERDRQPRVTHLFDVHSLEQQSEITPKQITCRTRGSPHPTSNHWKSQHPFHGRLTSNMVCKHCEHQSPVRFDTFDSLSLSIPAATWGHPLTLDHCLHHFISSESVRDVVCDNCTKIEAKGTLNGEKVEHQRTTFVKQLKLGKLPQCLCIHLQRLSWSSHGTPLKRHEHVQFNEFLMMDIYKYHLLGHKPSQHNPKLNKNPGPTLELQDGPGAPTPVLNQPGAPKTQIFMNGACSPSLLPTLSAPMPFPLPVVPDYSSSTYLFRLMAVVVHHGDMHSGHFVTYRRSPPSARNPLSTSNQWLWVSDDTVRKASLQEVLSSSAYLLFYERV
Sequence of USP30^ch3 (P54578 248-318 partner): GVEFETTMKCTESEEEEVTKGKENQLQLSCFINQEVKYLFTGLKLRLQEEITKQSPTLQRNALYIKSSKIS
Sequence of USP30^ch3 (Q9P2H5 821-846 partner): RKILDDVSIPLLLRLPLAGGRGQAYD

As to `CC(C)(C)NS(=O)(=O)c1ccc(NC(=O)[C@H](Cc2ccccc2)NC(=O)c2ccc(F)cc2)cc1` [compound 39], the “USP30ch3 WT activity (Fig. 5d / ED Fig. 7e series)” value by setting is: (inhibitor 0.001563 nM) 0.9251; (inhibitor 0.00625 nM) 0.867; (inhibitor 0.025 nM) 0.8429; (inhibitor 0.1 nM) 0.705; (inhibitor 0.39 nM) 0.5733; (inhibitor 1.56 nM) 0.4495. The “USP30ch3 WT activity (Fig. 5d / ED Fig. 7e series)” value runs as follows: (inhibitor 6.25 nM) 0.2804; (inhibitor 25 nM) 0.1378; (inhibitor 100 nM) 0.05989; (inhibitor 400 nM) 0.03092; (inhibitor 1600 nM) 0.02661. Further, the USP30ch3 activity runs as follows: (inhibitor 0.00625 nM) 0.8546; (inhibitor 0.025 nM) 0.7063; (inhibitor 0.1 nM) 0.6531; (inhibitor 0.39 nM) 0.4658; (inhibitor 1.56 nM) 0.3269; (inhibitor 6.25 nM) 0.1958. For the same compound, the USP30ch3 activity was 0.09897 (inhibitor 25 nM); 0.03567 (inhibitor 100 nM); 0.008529 (inhibitor 400 nM); -0.001344 (inhibitor 1600 nM); 0.9081 (inhibitor 0.0015625 (0.001563) nM).
